Literature values, collected in PMC10650486, “Fluoroquinolone-Based Organic Salts (GUMBOS) with Antibacterial Potential” (International Journal of Molecular Sciences, 2023).

What was measured:
[1] = tested on: E. coli; parameters: method as in earlier work; settings: cited from earlier work
[2] = cited from earlier work
[3] = tested on: S. aureus; settings: cited from earlier work
[4] = tested on: S. aureus; parameters: method as in earlier work; settings: cited from earlier work

SMILES: COc1c(N2C[C@@H]3CCCN[C@@H]3C2)c(F)cc2c(=O)c(C(=O)O)cn(C3CC3)c12 [[Mox], moxifloxacin]
- epidemiologic cutoff value (ECOFF) [1]: 0.25 mg·L^−1
- logKO/W [2]: −0.28
- MIC [3]: 0.032 to 2 µg/mL
- epidemiologic cutoff value (ECOFF) [4]: 0.25 mg·L^−1
